In PMC8968665, “Verteporfin is a substrate-selective γ-secretase inhibitor that binds the amyloid precursor protein transmembrane domain” (The Journal of Biological Chemistry, 2022):
Entries after “also recorded” stand apart in the source; their conditions may differ.

Columns and labels:
[1] = tested on: T1, C99; assay: 2D 1H,1H-NOESY of 1:1 verteporfin:C99 mixture; assay type: binding, human; conditions: 300 μM C99 and 300 μM verteporfin, 2.5% d27-LMPG
T1 construct: the transmembrane 99 residue C-terminal (C99) domain; His tag (either the C-terminal hexa-His that is kept, or the N-terminal His of C99-NT2 removed by thrombin); made in house; host or cells: E. coli BL21DE3
Description: A sample was prepared containing 300 μM C99 and 300 μM Verteporfin in 2.5% d^27-LMPG (deuterated alkyl chains), 50 mM d^4-Imidazole (deuterated imidazole), 100 mM NaCl, 0.5 mM EDTA, 1 mM DSS, pH 6.5 in 85% D2O. The ^1H-^1H NOESY experiment was recorded on the 800 MHz spectrometer with a mixing time of 120 ms, relaxation delay of 2 s, 4k × 1k data acquisition matrix, using the standard Bruker pulse program (noesyphpr).

[2] = target: T2, γ-secretase cleavage of C100-Flag (C99) (Homo sapiens, UniProt P05067); assay: γ-Secretase assay, C100-FLAG cleavage, AICD by anti-Flag Western blot; assay type: biochemical
T2 construct: C100 is C99 with an added N-terminal Met residue; made in house
T2 sequence (P05067 672-770 limits assumed): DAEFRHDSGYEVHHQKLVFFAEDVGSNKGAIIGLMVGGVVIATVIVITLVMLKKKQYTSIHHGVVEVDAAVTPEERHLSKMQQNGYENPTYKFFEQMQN
Description: The γ-secretase-dependent proteolysis assays with both substrates (C100-FLAG and HexaHis Notch 1 JM/TM) were performed in a weak zwitterionic detergent (CHAPSO, 3-[(3- cholamidopropyl)dimethylammonio]-2-hydroxy-1-propanesulfonate) solubilized conditions ([79], [80]). C100 is C99 with an added N-terminal Met residue. […] Proteolytic reactions were initiated by adding purified substrates (either C100-FLAG(79) or HexaHis-Notch 1 JM/TM(77)) and incubating at 37 °C (16 h for C100Flag and 4 h for HexaHis-Notch 1 JM/TM). Reactions were quenched with SDS, and the cleaved intracellular domain products (AICD-FLAG released from C100-FLAG or truncated intracellular domain (NICD) released from the proteolysis of Hexa-His Notch 1 JM/TM) were visualized by Western blot using specific primary antibodies, anti-FLAG antibody for FLAG-tagged AICD, and neoepitope-specific anti-V1744 antibody for NICD ([80], [83], [84]).

[3] = 1D 1H NMR titration of empty LMPG micelles by verteporfin; conditions: empty 2.5% LMPG micelles, acyl chain methylene peak shifts, n = 1; read-out: KD, one verteporfin binding to one detergent micelle model
From the text: For this equation, Y is the total binding, Bmax is the maximum binding in the same units as Y, X is the added ligand in molar units, KD is the equilibrium dissociation constant in the same units as X. 1D NMR-binding curves were generated by directly inputting 1D chemical shift perturbations directly into the proper version of Equation 2. Peak height data, such as that quantified in Figures 4 and S4, were first generated using the peak-picking function in NMRFAM Sparky, and peak heights as a function of ligand concentration were used to generate a KD by addition into Equation 2.

[4] = tested on: T3, C99 T761A; assay: TROSY NMR titration of C99 T761A mutant by verteporfin; assay type: binding, human; conditions: LMPG micelles, up to 300 µM verteporfin, n=1
T3 construct: the transmembrane 99 residue C-terminal (C99) domain; hexa-His; made in house
Description: (§1) A Bruker Avance III 600 MHz NMR spectrometer equipped with a cryoprobe (CPTCI) and automated sample changer (SampleJet) was used to collect NMR spectra. Sample details are described above. For high-throughput screening data collection, the ^15N-^1H BEST-TROSY (b_trosy3gpph.2) experiment with 64 scans for each of 96 increments and a relaxation delay of 200 ms was run at 318 K for a total data acquisition time of 35 min per sample. To achieve enhanced signal-to-noise ratio, follow-up titrations and control experiments were conducted using the BEST-TROSY pulse program with 200 scans per 96 increments at 318 K, for a total data acquisition time of 110 min per sample. Data were processed using Bruker Topspin 3.6 using a Gaussian window function with a line broadening of -10 and a Gaussian max of 0.1 in both dimensions. NMR data were then further processed and analyzed using NMR-FAM SPARKY, plotted using GraphPad Prism 9, and prepared for publication figures using Affinity Designer.

[5] = target: T2, γ-secretase cleavage of C100-Flag (C99); assay: γ-Secretase IC50 measurement, Aβ40 sandwich ELISA; assay type: biochemical; conditions: 1 nM purified γ-secretase, 2 µM C100-Flag, 2 h, 37 °C, n=1, error of the fit; read-out: IC50, inhibition of Aβ40 production
Description: Purified γ-secretase was diluted in standard assay buffer to specified concentrations and incubated at 37 °C for 30 min, followed by the addition of stock solution of verteporfin in DMSO to achieve various final verteporfin concentrations and 2% final DMSO concentration. Purified C99 FLAG was then added to start the proteolytic reactions, which were incubated for 2 h at 37 °C. The concentrations of Aβ40 produced during the proteolysis of C100 FLAG by γ-secretase were determined using a specific sandwich ELISA (Invitrogen). Aβ40 concentrations were plotted as a function of verteporfin concentration, and the resultant sigmoidal curves were fitted to Equation 5 to determine IC50 values ([80], [83]).(5) Y=Min+(Max−Min)/1+(X/IC50)^HillCoefficient

[6] = tested on: T4, Notch-1 TM/JM (residues 1721–1771); assay: TROSY NMR titration of Notch-1 TM/JM by verteporfin; assay type: binding
T4 construct: flanked by its juxtamembrane segments (residues 1721–1771, “Notch-1 TM/JM”); made in house; host or cells: E. coli BL21DE3 Star, pET21b
Description: as §1
2D ^15 N-^1H HSQC NMR data used to calculate dissociations constant (KD) values by first normalizing 2D data using the established formula ([78]) (Equation 1):(1) δ(1H,15N)=√(1/2[δ2H+.14∗δ2N]) Where δ(1H,15N) is the square root of linear chemical shifts in each respective dimension, δH and δN with the Nitrogen normalization factor of 0.14.

## verteporfin
[1]
  direct intermolecular contact with C99 (NOESY cross-peaks): confirms direct binding
[2]; 30 nM purified γ-secretase, C100-Flag, 16 h, 37 °C, n = 3, read-out: IC50, inhibition of AICD production
  IC50: 164 ± 45 µM
[2]; 30 nM γ-secretase
  degree of inhibition of C99 cleavage at saturating verteporfin: approximately 75%
[2]; 100 µM verteporfin, 2 µM C100-Flag, 1 nM γ-secretase, Fig. S6A
  C100-Flag cleavage efficiency (Western blot): greatly reduced
[2]; depending on assay conditions (1 nM to 30 nM enzyme), read-out: IC50 range for γ-secretase cleavage of C99
  IC50: 15 to 164 µM
[3]
  Kd: 53 ± 21 µM
[4]
  binding to C99 T761A: complete lack of binding; also recorded: binding was disrupted
[5]
  IC50: 15 ± 1 µM
[6]; D6PC/DMPC bicelles
  binding to Notch-1 TM/JM: only minor spectral changes at very high concentrations; also recorded: does not bind
[6]; DDMB micelles
  binding to Notch-1 TM/JM: little change in the spectrum of Notch-1 until a concentration of 300 μM; also recorded: does not bind
[6]; LMPG micelles, same conditions as C99 titration
  binding to Notch-1 TM/JM: does not bind; also recorded: only minor perturbations of Notch resonances
[6]; general statement
  binding to Notch-1 transmembrane domain: did not bind; also recorded: not to bind
